Data as given in PubChem BioAssay (NCI).
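Growth conditions: 96-well plates. Treatment: test compound, 48 hours, 5 concentrations. Analysis: linear interpolation between bracketing concentrations; unreached endpoints set to highest concentration. Definition used: TGI = concentration required for complete inhibition of growth.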

Columns and labels:
Test in all cases: NCI-60 cell line screen, 48 h
SK-OV-3 ovarian = tested on: SK-OV-3 ovarian
CCRF-CEM leukemia = tested on: CCRF-CEM leukemia
OVCAR-8 ovarian = tested on: OVCAR-8 ovarian
MALME-3M melanoma = tested on: MALME-3M melanoma
LOX IMVI melanoma = tested on: LOX IMVI melanoma
MDA-MB-435 = tested on: MDA-MB-435
OVCAR-4 ovarian = tested on: OVCAR-4 ovarian
KM12 colon = tested on: KM12 colon
HCT-116 colon = tested on: HCT-116 colon
OVCAR-3 ovarian = tested on: OVCAR-3 ovarian
SN12C renal = tested on: SN12C renal
IGROV1 ovarian = tested on: IGROV1 ovarian
OVCAR-5 ovarian = tested on: OVCAR-5 ovarian
SK-MEL-2 melanoma = tested on: SK-MEL-2 melanoma
MDA-N = tested on: MDA-N
HOP-92 NSCLC = tested on: HOP-92 NSCLC
MDA-MB-231 breast = tested on: MDA-MB-231 breast
SNB-75 CNS = tested on: SNB-75 CNS
SK-MEL-28 melanoma = tested on: SK-MEL-28 melanoma
COLO 205 colon = tested on: COLO 205 colon
HS 578T breast = tested on: HS 578T breast
M14 melanoma = tested on: M14 melanoma
HL-60(TB) leukemia = tested on: HL-60(TB) leukemia
A549 NSCLC = tested on: A549 NSCLC
SR leukemia = tested on: SR leukemia
NCI-H226 lung = tested on: NCI-H226 lung
EKVX NSCLC = tested on: EKVX NSCLC
SF-295 CNS = tested on: SF-295 CNS
786-0 renal = tested on: 786-0 renal
TK-10 renal = tested on: TK-10 renal
SW-620 colon = tested on: SW-620 colon
BT-549 breast = tested on: BT-549 breast
CAKI-1 renal = tested on: CAKI-1 renal
PC-3 prostate = tested on: PC-3 prostate
RXF 393 renal = tested on: RXF 393 renal
UACC-62 melanoma = tested on: UACC-62 melanoma
SF-268 CNS = tested on: SF-268 CNS
NCI-H23 lung = tested on: NCI-H23 lung
ACHN renal = tested on: ACHN renal
HOP-62 NSCLC = tested on: HOP-62 NSCLC
HT29 colon = tested on: HT29 colon
MOLT-4 leukemia = tested on: MOLT-4 leukemia
U251 CNS = tested on: U251 CNS
NCI-H522 lung = tested on: NCI-H522 lung
HCT-15 colon = tested on: HCT-15 colon
UO-31 renal = tested on: UO-31 renal
UACC-257 melanoma = tested on: UACC-257 melanoma
NCI/ADR-RES ovarian = tested on: NCI/ADR-RES ovarian
K-562 leukemia = tested on: K-562 leukemia
NCI-H460 lung = tested on: NCI-H460 lung
HCC-2998 colon = tested on: HCC-2998 colon
SNB-19 CNS = tested on: SNB-19 CNS
DU-145 prostate = tested on: DU-145 prostate
A498 renal = tested on: A498 renal
RPMI-8226 leukemia = tested on: RPMI-8226 leukemia
MCF7 breast = tested on: MCF7 breast
SK-MEL-5 melanoma = tested on: SK-MEL-5 melanoma
SF-539 CNS = tested on: SF-539 CNS

COc1ccc(N=Nc2c(O)ccc3ccccc23)cc1
TGI (SK-OV-3 ovarian): 28.1 µM
TGI (CCRF-CEM leukemia): > 100 µM
TGI (OVCAR-8 ovarian): 29.1 µM
TGI (MALME-3M melanoma): 32.9 µM
TGI (LOX IMVI melanoma): > 100 µM
TGI (MDA-MB-435): > 100 µM
TGI (OVCAR-4 ovarian): 32.3 µM
TGI (KM12 colon): 24.9 µM
TGI (HCT-116 colon): > 100 µM
TGI (OVCAR-3 ovarian): > 100 µM
TGI (SN12C renal): > 100 µM
TGI (IGROV1 ovarian): 24.2 µM
TGI (OVCAR-5 ovarian): 60.6 µM
TGI (SK-MEL-2 melanoma): > 100 µM
TGI (MDA-N): > 100 µM
TGI (HOP-92 NSCLC): 47.7 µM
TGI (MDA-MB-231 breast): 96.5 µM
TGI (SNB-75 CNS): 37.7 µM
TGI (SK-MEL-28 melanoma): > 100 µM
TGI (COLO 205 colon): > 100 µM
TGI (HS 578T breast): 23.2 µM
TGI (M14 melanoma): > 100 µM
TGI (HL-60(TB) leukemia): > 100 µM
TGI (A549 NSCLC): 39.5 µM
TGI (SR leukemia): 41.7 µM
TGI (NCI-H226 lung): 47.6 µM
TGI (EKVX NSCLC): 34.8 µM
TGI (SF-295 CNS): 30.1 µM
TGI (786-0 renal): > 100 µM
TGI (TK-10 renal): 34 µM
TGI (SW-620 colon): > 100 µM
TGI (BT-549 breast): 56.1 µM
TGI (CAKI-1 renal): > 100 µM
TGI (PC-3 prostate): > 100 µM
TGI (RXF 393 renal): > 100 µM
TGI (UACC-62 melanoma): 36.3 µM
TGI (SF-268 CNS): 37.7 µM
TGI (NCI-H23 lung): 85.2 µM
TGI (ACHN renal): 57.7 µM
TGI (HOP-62 NSCLC): 26.7 µM
TGI (HT29 colon): 38 µM
TGI (MOLT-4 leukemia): > 100 µM
TGI (U251 CNS): 30.6 µM
TGI (NCI-H522 lung): 60.9 µM
TGI (HCT-15 colon): > 100 µM
TGI (UO-31 renal): > 100 µM
TGI (UACC-257 melanoma): > 100 µM
TGI (NCI/ADR-RES ovarian): > 100 µM

c1ccc2c(c1)c(N1CCCCC1)cc1nc3c(cc(N4CCCCC4)c4ccccc43)nc12
TGI (K-562 leukemia): > 100 µM
TGI (SK-OV-3 ovarian): > 100 µM
TGI (CCRF-CEM leukemia): > 100 µM
TGI (OVCAR-8 ovarian): > 100 µM
TGI (MALME-3M melanoma): > 100 µM
TGI (LOX IMVI melanoma): > 100 µM
TGI (MDA-MB-435): > 100 µM
TGI (OVCAR-4 ovarian): > 100 µM
TGI (KM12 colon): > 100 µM
TGI (NCI-H460 lung): > 100 µM
TGI (HCT-116 colon): > 100 µM
TGI (OVCAR-3 ovarian): > 100 µM
TGI (SN12C renal): > 100 µM
TGI (IGROV1 ovarian): > 100 µM
TGI (OVCAR-5 ovarian): > 100 µM
TGI (SK-MEL-2 melanoma): > 100 µM
TGI (MDA-N): > 100 µM
TGI (HOP-92 NSCLC): > 100 µM
TGI (HCC-2998 colon): > 100 µM
TGI (MDA-MB-231 breast): > 100 µM
TGI (SNB-75 CNS): > 100 µM
TGI (SNB-19 CNS): > 100 µM
TGI (DU-145 prostate): > 100 µM
TGI (SK-MEL-28 melanoma): > 100 µM
TGI (COLO 205 colon): > 100 µM
TGI (A498 renal): > 100 µM
TGI (M14 melanoma): > 100 µM
TGI (HL-60(TB) leukemia): > 100 µM
TGI (A549 NSCLC): > 100 µM
TGI (SR leukemia): > 100 µM
TGI (NCI-H226 lung): > 100 µM
TGI (EKVX NSCLC): > 100 µM
TGI (SF-295 CNS): > 100 µM
TGI (786-0 renal): > 100 µM
TGI (RPMI-8226 leukemia): > 100 µM
TGI (SW-620 colon): > 100 µM
TGI (BT-549 breast): > 100 µM
TGI (MCF7 breast): > 100 µM
TGI (CAKI-1 renal): > 100 µM
TGI (PC-3 prostate): > 100 µM
TGI (RXF 393 renal): > 100 µM
TGI (UACC-62 melanoma): > 100 µM
TGI (SK-MEL-5 melanoma): > 100 µM
TGI (NCI-H23 lung): > 100 µM
TGI (ACHN renal): > 100 µM
TGI (HOP-62 NSCLC): > 100 µM
TGI (HT29 colon): > 100 µM
TGI (MOLT-4 leukemia): > 100 µM
TGI (U251 CNS): > 100 µM
TGI (NCI-H522 lung): > 100 µM
TGI (HCT-15 colon): > 100 µM
TGI (UO-31 renal): > 100 µM
TGI (SF-539 CNS): > 100 µM
TGI (UACC-257 melanoma): > 100 µM
TGI (NCI/ADR-RES ovarian): > 100 µM
